From patent US20260008746A1, “CATIONIC LIPID COMPOUND WITH HIGH EFFICIENCY, LOW TOXICITY AND STABLE EXPRESSION, AND COMPOSITION COMPRISNG SAME” (HANGZHOU TIANLONG PHARMACEUTICAL CO., LTD, priority 2023, published 2026)
Several values for one entry are separate records, joined by “and”; a condition that tells them apart may be missing. Identical values can stand only once.

Key:
[1] = Determination of particle size and polydispersity index (PDI) of lipid nanoparticles by dynamic light scattering; assay type: physicochemical; settings: LNP formulation of named cationic lipid/DSPC/cholesterol/DMG-PEG2000 49:10:39.5:1.5; for Particle size (nm): 90° scattering angle, 25° C
Outline: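 LNPs of cationic lipid/DSPC/cholesterol/DMG-PEG2000 (49:10:39.5:1.5 mol%), lipid:mRNA 15:1 w/w, carrying eGFP or Fluc mRNA, made by ethanol injection into citrate buffer pH 4–5, sonicated, PBS-exchanged by ultrafiltration. Size and PDI by dynamic light scattering after dilution in RNase-free water, 90° angle, 25 °C, triplicate.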

[2] = system: 293T cells; assay: Fluorescent detection of Fluc-mRNA (cell transfection efficiency of LNP formulations); assay type: cell-based; settings: for Relative light unit (RLU): LNP formulation containing 0.3 μg Fluc-mRNA, 96-well plate, 24 hours; for Multiples (YK-107): RLU of YK-107 / RLU of named substance; for fluorescence absorption value, times that of HHMA: RLU of named substance / RLU of HHMA; for fluorescence absorption value, times that of Lipofectamine 3000: RLU of named substance / RLU of Lipofectamine 3000; for Ratio relative to SM-102: RLU of named substance / RLU of SM-102; for Fluc-mRNA expression signal intensity, times that of compound 21: RLU of named substance / RLU of compound 21; for fluorescence absorption value, times that of compound 23: RLU of named substance / RLU of compound 23; for difference from SM-102 in Fluc-mRNA fluorescence (GraphPad Prism analysis): statistical comparison with SM-102
Outline: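 293T cells seeded at 10,000 per well, cultured overnight, then given LNP carrying 0.3 μg Fluc-mRNA (cationic:neutral:structured:PEG-lipid 49:10:39.5:1.5 molar). Incubated 24 h. Luciferase signal read with kit reagent on an IVIS imaging system.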

[3] = system: 293T cells; assay: Cell survival rate determination (CCK-8); assay type: cell-based; settings: for Cell survival rate (%): LNP formulation containing 1.5 μg Fluc-mRNA, 24 hours, CCK-8, absorbance at 450 nm; for cell survival rate lower than that of YK-101: cell survival rate of YK-101 minus that of named substance; for cell survival rate lower than that of YK-107: cell survival rate of YK-107 minus that of named substance; for cell survival rate lower than that of YK-108: cell survival rate of YK-108 minus that of named substance
Outline: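 293T cells were seeded overnight at 10,000 cells/well in 96-well plates, then exposed for 24 h to LNP containing 1.5 μg Fluc-mRNA (cationic:neutral:structural:polymer-conjugated lipid, 49:10:39.5:1.5 molar) or to Lipofectamine 3000. Viability was read by CCK-8, 1 h incubation, absorbance 450 nm.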

[4] = system: BALB/C mice; assay: In vivo imaging of Fluc-mRNA expression in mice delivered by LNP formulations; settings: for average radiation intensity, 6 h / average radiation intensity, 24 h / average radiation intensity, 48 h / average radiation intensity, 7 d: LNP containing 10 pg Fluc-mRNA, intramuscular, female BALB/C mice
Outline: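 Female BALB/C mice (4-6 weeks, 17-19 g) received LNP carrying […] Fluc-mRNA intramuscularly. Substrate was given intraperitoneally at 6 h, 24 h, 48 h and 7 d, and average radiance was imaged by IVIS 5 min later.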

[5] = highest multiple, time point not stated

| SMILES | PDI(%) [1] [%] | Particle size (nm) [1] [nm] | Relative light unit (RLU) [2] [RLU] | Multiples (YK-107) [2] | fluorescence absorption value, times that of HHMA [2] [times] | fluorescence absorption value, times that of Lipofectamine 3000 [2] [times] | Ratio relative to SM-102 [2] | Fluc-mRNA expression signal intensity, times that of compound 21 [2] [times] | fluorescence absorption value, times that of compound 23 [2] [times] | difference from SM-102 in Fluc-mRNA fluorescence (GraphPad Prism analysis) [2] | Cell survival rate (%) [3] [%] | cell survival rate lower than that of YK-101 [3] | cell survival rate lower than that of YK-107 [3] | cell survival rate lower than that of YK-108 [3] | average radiation intensity of YK-101, times that of named substance ([4]; 6 h) [times] | average radiation intensity of YK-107, times that of named substance ([4]; 6 h) [times] | average radiation intensity of YK-108, times that of named substance ([4]; 6 h) [times] | average radiation intensity of YK-101, times that of named substance ([4]; 24 h) [times] | average radiation intensity of YK-107, times that of named substance ([4]; 24 h) [times] | average radiation intensity of YK-108, times that of named substance ([4]; 24 h) [times] | also measured |
| --- | --- | --- | --- | --- | --- | --- | --- | --- | --- | --- | --- | --- | --- | --- | --- | --- | --- | --- | --- | --- | --- |
| CCCCCCCCCCOC(=O)CCCN(CCCCCC(=O)OCCC(CCCCCC)CCCCCC)CCOCCO [YK-123, 3-hexylnonyl 6-(4-(decyloxy)-4-oxobutyl)(2-(2-hydroxyethoxy-ethyl)amino)hexanoate] | 15.4 | 246 | 807703 | 27.68 | 0.39 | 0.75 | 0.53 | 0.58 | 0.63 | no significant difference | 76.68 | 13.44% | 13.77% | 13.18% | 4.7 | 5.0 | 6.4 | 18.0 | 22.2 | 23.9 | cell transfection efficiency, times that of YK-124 [2]: 10 times; average radiation intensity of YK-101, times that of named substance ([4]; 48 h): 19.9 times; average radiation intensity of YK-107, times that of named substance ([4]; 48 h): 24.2 times; average radiation intensity of YK-108, times that of named substance ([4]; 48 h): 24.7 times; average radiation intensity of YK-101, times that of named substance ([4]; 7 d): 8.6 times; average radiation intensity of YK-107, times that of named substance ([4]; 7 d): 9.4 times; average radiation intensity of YK-108, times that of named substance ([4]; 7 d): 10.0 times; average radiation intensity, 6 h ([4]; 6 h): 317640; average radiation intensity, 24 h ([4]; 24 h): 58728; average radiation intensity, 48 h ([4]; 48 h): 9336; average radiation intensity, 7 d ([4]; 7 d): 1414 |
| CCCCCCCCCCOC(=O)CCCN(CCCCCC(=O)OCC(CCCCCCCC)CCCCCCCC)CCOC(=O)CCCN(C)C [YK-126] | 15.1 | 260 | 219983 | 101.65 | 0.11 | 0.20 | 0.14 | 0.16 | 0.17 | significant difference | 25.03 | 60% and 65.09% | 60% and 65.42% | 60% and 64.83% | 9.6 | 10.3 | 13.0 | 50.4 | 62.2 | 67.1 | cell transfection activity, times that of YK-125 [2]: 1.3 times; Multiples (YK-101) ([2]; RLU of YK-101 / RLU of named substance): 92.44; Multiples (YK-108) ([2]; RLU of YK-108 / RLU of named substance): 112.10; cell survival rate lower than that of YK-122 [3]: 54.12%; cell survival rate lower than that of YK-124 [3]: 52.53%; average radiation intensity of YK-101, times that of named substance ([4]; 48 h): 27.9 times; average radiation intensity of YK-107, times that of named substance ([4]; 48 h): 34.0 times; average radiation intensity of YK-108, times that of named substance ([4]; 48 h): 34.6 times; average radiation intensity of YK-101, times that of named substance ([4]; 7 d): 13.9 times; average radiation intensity of YK-107, times that of named substance ([4]; 7 d): 15.2 times; average radiation intensity of YK-108, times that of named substance ([4]; 7 d): 16.2 times; average radiation intensity, 6 h ([4]; 6 h): 155160; average radiation intensity, 24 h ([4]; 24 h): 20939; average radiation intensity, 48 h ([4]; 48 h): 6656; average radiation intensity, 7 d ([4]; 7 d): 877; expression amount of mRNA in mice of YK-101, times that of named substance [4, 5]: 50 times; expression amount of mRNA in mice of YK-107, times that of named substance [4, 5]: 62 times |
